Experimental data taken from US6822102B2, “Dihydrobenzopyrans, dihydrobenzothiopyrans, and tetrahydroquinolines for the treatment of COX-2 mediated disorders” (Pharmacia Corporation, priority 2000, dated 2004).

How the values were obtained:
[1] = target: COX-1 (UniProt P23219); experiment: Fast assay for COX-1 activity (PGE2 ELISA, recombinant enzyme); assay type: biochemical, human or murine; conditions: column marked *; footnote not given
Experimental: (§1) a. Preparation of recombinant COX baculoviruses
(§2) Recombinant COX-1 and COX-2 were prepared as described by Gierse et al, [J. Biochem., 305, 479-84 (1995)]. A 2.0 kb fragment containing the coding region of either human or murine COX-1 or human or murine COX-2 was cloned into a BamHI site of the baculovirus transfer vector pVL1393 (Invitrogen) to generate the baculovirus transfer vectors for COX-1 and COX-2 in a manner similar to the method of D. R. O'Reilly et al (Baculovirus Expression Vectors: A Laboratory Manual (1992)). Recombinant baculoviruses were isolated by transfecting 4 μg of baculovirus transfer vector DNA into SF9 insect cells (2×10^8) along with 200 ng of linearized baculovirus plasmid DNA by the calcium phosphate method. See M. D. Summers and G. E. Smith, A Manual of Methods for Baculovirus Vectors and Insect Cell Culture Procedures, Texas Agric. Exp. Station Bull. 1555 (1987). Recombinant viruses were purified by three rounds of plaque purification and high titer (10^7-10^8 pfu/mL) stocks of virus were prepared. For large scale production, SF9 insect cells were infected in 10 liter fermentors (0.5×10^6/mL) with the recombinant baculovirus stock such that the multiplicity of infection was 0.1. After 72 hours the cells were centrifuged and the cell pellet homogenized in Tris/Sucrose (50 mM: 25%, pH 8.0) containing 1% 3-[(3-cholamidopropyl) dimethylammino]-1-propanesulfonate (CHAPS). The homogenate was centrifuged at 10,000×G for 30 minutes, and the resultant supernatant was stored at −80° C. before being assayed for COX activity.
(§3) c. Fast assay for COX-1 and COX-2 activity
(§4) COX activity was assayed as PGE2 formed/μg protein/time using an ELISA to detect the prostaglandin released. CHAPS-solubilized insect cell membranes containing the appropriate COX enzyme were incubated in a potassium phosphate buffer (0.05 M Potassium phosphate, pH 7.5, 2 μM phenol, 1 μM heme, 300 μM epinephrine) with the addition of 20 μl of 100 μM arachidonic acid (10 μM). Compounds were pre-incubated with the enzyme for 10 minutes at 25° C. prior to the addition of arachidonic acid. Any reaction between the arachidonic acid and the enzyme was stopped after two minutes at 37° C./room temperature by transferring 40 μl of reaction mix into 160 μl ELISA buffer and 25 μM indomethacin. The PGE2 formed was measured by standard ELISA technology (Cayman Chemical).

[2] = target: COX-1 (UniProt P23219); experiment: Assay for COX-1 activity (PGE2 ELISA, recombinant enzyme); assay type: biochemical, human or murine; conditions: without asterisk
Experimental: as §1, §2
(§5) b. Assay for COX-1 and COX-2 activity
(§6) COX activity was assayed as PGE2 formed/μg protein/time using an ELISA to detect the prostaglandin released. CHAPS-solubilized insect cell membranes containing the appropriate COX enzyme were incubated in a potassium phosphate buffer (50 mM, pH 8.0) containing epinephrine, phenol, and heme with the addition of arachidonic acid (10 μM). Compounds were pre-incubated with the enzyme for 10-20 minutes prior to the addition of arachidonic acid. Any reaction between the arachidonic acid and the enzyme was stopped after ten minutes at 37° C./room temperature by transferring 40 μl of reaction mix into 160 μl ELISA buffer and 25 μM indomethacin. The PGE2 formed was measured by standard ELISA technology (Cayman Chemical).

[3] = target: T1, COX-2 (UniProt P35354); experiment: Assay for COX-2 activity (PGE2 ELISA, recombinant enzyme); assay type: biochemical, human or murine; conditions: without asterisk
T1 sequence (P35354 1-604): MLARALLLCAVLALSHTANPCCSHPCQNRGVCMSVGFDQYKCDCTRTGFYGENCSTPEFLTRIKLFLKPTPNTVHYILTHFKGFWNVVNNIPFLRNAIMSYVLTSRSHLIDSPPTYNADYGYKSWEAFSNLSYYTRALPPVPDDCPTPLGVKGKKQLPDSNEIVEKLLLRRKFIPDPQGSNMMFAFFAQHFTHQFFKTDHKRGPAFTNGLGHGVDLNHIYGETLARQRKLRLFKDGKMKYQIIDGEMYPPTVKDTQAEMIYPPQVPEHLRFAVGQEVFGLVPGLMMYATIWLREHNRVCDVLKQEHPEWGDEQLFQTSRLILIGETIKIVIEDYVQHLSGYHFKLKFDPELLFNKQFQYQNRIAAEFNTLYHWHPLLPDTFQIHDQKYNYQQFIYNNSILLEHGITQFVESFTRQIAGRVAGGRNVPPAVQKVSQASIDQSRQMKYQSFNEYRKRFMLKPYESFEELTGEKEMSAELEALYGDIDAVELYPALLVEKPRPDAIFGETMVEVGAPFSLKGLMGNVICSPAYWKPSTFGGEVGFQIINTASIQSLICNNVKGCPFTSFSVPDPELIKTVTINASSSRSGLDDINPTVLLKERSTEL
Experimental: (§7) The COX-2 inhibition activity of the compounds of this invention illustrated in the Examples was determined by the following methods.
as §1, §2, §5, §6

[4] = target: T1, COX-2; experiment: Fast assay for COX-2 activity (PGE2 ELISA, recombinant enzyme); assay type: biochemical, human or murine; conditions: column marked *; footnote not given
Experimental: as §7, §1, §2, §3, §4

[5] = tested on: carrageenan foot edema; experiment: Rat carrageenan foot pad edema test; assay type: in vivo; conditions: oral, male Sprague-Dawley rats, 3 h after carrageenan
Experimental: Rat Carrageenan Foot Pad Edema Test The carrageenan foot edema test was performed with materials, reagents and procedures essentially as described by Winter, et al., (Proc. Soc. Exp. Biol. Med., 111, 544 (1962)). Male Sprague-Dawley rats were selected in each group so that the average body weight was as close as possible. Rats were fasted with free access to water for over sixteen hours prior to the test. The rats were dosed orally (1 mL) with compounds suspended in vehicle containing 0.5% methylcellulose and 0.025% surfactant, or with vehicle alone. One hour later a subplantar injection of 0.1 mL of 1% solution of carrageenan/sterile 0.9% saline was administered and the volume of the injected foot was measured with a displacement plethysmometer connected to a pressure transducer with a digital indicator. Three hours after the injection of the carrageenan, the volume of the foot was again measured. The average foot swelling in a group of drug-treated animals was compared with that of a group of placebo-treated animals and the percentage inhibition of edema was determined (Otterness and Bliven, Laboratory Models for Testing NSAIDs, in Non-steroidal Anti-Inflammatory Drugs, (J. Lombardino, ed. 1985)).

[6] = Analgesia (Table I); assay type: in vivo

With `O=C(O)[C@@H]1Cc2c(ccc(Cl)c2Cl)O[C@@H]1C(F)(F)F` (racemic) [Example 3, rel-(2R, 3S)-5,6-dichloro-3,4-dihydro-2-(trifluoromethyl)-2H-1-benzopyran-3-carboxylic acid] the IC50 [1] was 5700 nM, the melting point was 173 to 174.4 °C and the IC50 [2] was > 100000 nM. The IC50 [3] was 200 nM and the IC50 [4] was 200 nM.
`CC(C)(C)c1cc2c(cc1Cl)C[C@@H](C(=O)O)[C@@H](C(F)(F)F)O2` [Example 4, (2S,3R)-6-chloro-3,4-dihydro-7-(1,1-dimethylethyl)-2-(trifluoromethyl)-2H-1-benzopyran-3-carboxylic acid] gave an IC50 [1] of 1300 nM, a melting point of 115.8 to 120.9 °C and an IC50 [2] of 12000 nM. The IC50 [3] was > 100000 nM and the IC50 [4] was 1600 nM.
For `O=C(O)[C@@H]1Cc2cc(Cl)cc(Cl)c2S[C@@H]1C(F)(F)F` (racemic) [Example 1, rel-(2R, 3S)-6,8-dichloro-3,4-dihydro-2-(trifluoromethyl)-2H-1-benzothiopyran-3-carbolic acid], the melting point was 165 to 170.2 °C.
For `O=C(O)[C@@H]1Cc2c(Cl)ccc(Cl)c2O[C@@H]1C(F)(F)F` (racemic) [Example 8, rel-(2R,3S)-5,8-dichloro-3,4-dihydro-2-(trifluoromethyl)-2H-1-benzopyran-3-carboxylic acid], the IC50 [1] was 8700 nM, the melting point was 185.7 to 188.9 °C and the IC50 [2] was 22000 nM. The IC50 [3] was 2000 nM and the IC50 [4] was 2300 nM.
For `O=C(O)[C@@H]1Cc2cc(OC(F)(F)F)ccc2O[C@@H]1C(F)(F)F` (racemic) [Example 11, rel-(2R,3S)-3,4-dihydro-6-trifluoromethoxy-2-(trifluoromethyl)-2H-1-benzopyran-3-carboxylic acid], the IC50 [1] was 65000 nM, the melting point was 120.1 to 120.8 °C and the IC50 [2] was > 100000 nM. It also gave an IC50 [3] of 400 nM and an IC50 [4] of 600 nM.
For `O=C(O)[C@@H]1Cc2cc(Cl)c(Cl)c(Cl)c2O[C@@H]1C(F)(F)F` (racemic) [Example 7, rel-(2R, 3S)-3,4-dihydro-6,7,8-trichloro-2-(trifluoromethyl)-2H-1-benzopyran-3-carboxylic acid], the IC50 [1] was 54000 nM, the melting point was 205.2 to 208.1 °C and the IC50 [2] was > 100000 nM. For the same compound, the IC50 [3] was 700 nM and the IC50 [4] was 600 nM.
With `O=C(O)[C@@H]1Cc2cc(Cl)cc(Cl)c2O[C@@H]1C(F)(F)F` [Example 2, (2S,3R)-6,8-dichloro-3,4-dihydro-2-(trifluoromethyl)-2H-1-benzopyran-3-carboxylic acid] the IC50 [1] was 1000 nM, the melting point was 100.3 to 101.1 °C and the “RAT PAW EDEMA % Inhibition @ 30 mg/kg body weight” value [5] was 52%. The “ANALGESIA % Inhibition @ 30 mg/kg body weight” value [6] was 56%, the IC50 [2] was 2800 nM and the IC50 [3] was 200 nM. The IC50 [4] was 300 nM.
For `O=C(O)[C@@H]1Cc2cc(Cl)ccc2N[C@@H]1C(F)(F)F` [Example 6, (2S,3R)-6-Chloro-1,2,3,4-tetrahydro-2-(trifluoromethyl)-3-quinolinecarboxylic acid], the IC50 [1] was > 100000 nM, the melting point was 154.4 to 154.5 °C and the IC50 [2] was > 100000 nM. For the same compound, the IC50 [3] was 25000 nM and the IC50 [4] was 2600 nM.
With `N#Cc1ccc2c(c1)C[C@@H](C(=O)O)[C@@H](C(F)(F)F)O2` (racemic) [Example 10, rel-(2R,3S)-6-cyano-3,4-dihydro-2-(trifluoromethyl)-2H-1-benzopyran-3-carboxylic acid] the IC50 [1] was > 100000 nM, the melting point was 169 to 170.4 °C and the IC50 [2] was > 100000 nM. For the same compound, the IC50 [3] was 18000 nM and the IC50 [4] was 4800 nM.
With `O=C(O)[C@@H]1Cc2cc(Cl)ccc2O[C@@H]1C(F)(F)F` [Example 9, (2S,3R)-6-chloro-3,4-dihydro-2-(trifluoromethyl)-2H-1-benzopyran-3-carboxylic acid] the IC50 [1] was > 100000 nM, the melting point was 118.1 to 119.2 °C and the IC50 [2] was > 100000 nM. It also gave an IC50 [3] of 29000 nM and an IC50 [4] of 500 nM.
`O=C(O)[C@@H]1Cc2cc(Cl)cc(Cl)c2S[C@@H]1C(F)(F)F` (relative stereo) [Example 1, rel-(2R, 3S)-6,8-dichloro-3,4-dihydro-2-(trifluoromethyl)-2H-1-benzothiopyran-3-carbolic acid] showed an IC50 [1] of 600 nM, an IC50 [2] of 600 nM and an IC50 [3] of 300 nM. The IC50 [4] was 600 nM.
For `O=C(O)[C@@H]1Cc2c(cc(Cl)c(Cl)c2Cl)O[C@@H]1C(F)(F)F` (racemic) [Example 5, rel-(2R,3S)-3,4-dihydro-5,6,7-trichloro-2-(trifluoromethyl)-2H-1-benzopyran-3-carboxylic acid], the IC50 [1] was > 100000 nM, the melting point was 207.3 to 208.5 °C and the IC50 [2] was > 100000 nM. The IC50 [3] was 400 nM and the IC50 [4] was 400 nM.
